Laboratory results from patent publication US20250136586A1, “Substituted 7-(Pyrimidin-4-yl)Quinolin-4(1H)-One Compounds as Cyclin Dependent Kinase Inhibitors” (BeiGene, Ltd., priority 2022, published 2025).

Assays:
[1] = biological target: CDK4/Cyclin D1 (Homo sapiens (Human), UniProt P11802); assay: TR-FRET kinase inhibition assay, CDK4/Cyclin D1; type: biochemical; conditions: 1 mM ATP, 0.15 μM Rb (Ser780)-biotin substrate, read-out: CDK4D1 IC50
Procedure: Compounds disclosed herein were tested for inhibition of CDK4/Cyclin D1 or CDK6/Cyclin D3 kinase in an assay based on the time-resolved fluorescence-resonance energy transfer (TR-FRET) methodology. […] The kinase was incubated with compound for 60 minutes at room temperature and the reaction was initiated by the addition of ATP and Rb (Ser780)-biotin substrate. After reaction at room temperature for 120 minutes, an equal volume of stop/detection solution was added according to the manufacture's instruction (Cisbio Bioassays). The stop/detection solution contained Streptavidin-XL665 and Anti-pRb (Ser780) mAb-Eu Cryptate in Detection buffer (Cisbio Bioassays). […] The inhibition percentage of CDK4/Cyclin D1 or CDK6/Cyclin D3 kinase activity in presence of increasing concentrations of compounds was calculated based on the ratio of fluorescence at 665 nm to that at 620 nm. The IC50 for each compound was derived from fitting the data to the four-parameter logistic equation by Dotmatics.

[2] = biological target: CDK6/Cyclin D3 (Homo sapiens (Human), UniProt Q00534); assay: TR-FRET kinase inhibition assay, CDK6/Cyclin D3; type: biochemical; conditions: 1 mM ATP, 0.15 μM Rb (Ser780)-biotin substrate, read-out: CDK6D3 IC50
Procedure: Compounds disclosed herein were tested for inhibition of CDK4/Cyclin D1 or CDK6/Cyclin D3 kinase in an assay based on the time-resolved fluorescence-resonance energy transfer (TR-FRET) methodology. The assay was carried out in 384-well low volume black plates in a reaction mixture containing CDK4/Cyclin D1 or CDK6/Cyclin D3, 1 mM ATP, 0.15 μM Rb (Ser780)-biotin substrate and 0-10 μM compound in buffer containing 50 mM HEPES pH7.0, 0.02% NaN3, 0.01% BSA, 0.1 mM Orthovanadate, 50 mM MgCl2, 1 mM DTT and 0.005% Tween-20. The kinase was incubated with compound for 60 minutes at room temperature and the reaction was initiated by the addition of ATP and Rb (Ser780)-biotin substrate. After reaction at room temperature for 120 minutes, an equal volume of stop/detection solution was added according to the manufacture's instruction (Cisbio Bioassays). The stop/detection solution contained Streptavidin-XL665 and Anti-pRb (Ser780) mAb-Eu Cryptate in Detection buffer (Cisbio Bioassays). Plates were incubated at room temperature for 60 minutes, and the TR-FRET signals (ex337 nm, em665 nm/620 nm) were recorded on a PHERAstar FSX plate reader (BMG Labtech). The inhibition percentage of CDK4/Cyclin D1 or CDK6/Cyclin D3 kinase activity in presence of increasing concentrations of compounds was calculated based on the ratio of fluorescence at 665 nm to that at 620 nm. The IC50 for each compound was derived from fitting the data to the four-parameter logistic equation by Dotmatics.

Chain of CDK4/Cyclin D1 (P11802 whole entry): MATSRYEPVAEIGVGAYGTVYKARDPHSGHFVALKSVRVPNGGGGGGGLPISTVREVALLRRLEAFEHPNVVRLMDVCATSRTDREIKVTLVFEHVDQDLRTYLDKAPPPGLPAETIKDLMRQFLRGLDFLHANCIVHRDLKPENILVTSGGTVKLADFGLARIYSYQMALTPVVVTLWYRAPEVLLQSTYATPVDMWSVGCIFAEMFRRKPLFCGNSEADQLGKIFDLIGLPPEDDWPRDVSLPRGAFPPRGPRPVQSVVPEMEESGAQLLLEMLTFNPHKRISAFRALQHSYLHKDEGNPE
Chain of CDK4/Cyclin D1 (P24385 whole entry partner): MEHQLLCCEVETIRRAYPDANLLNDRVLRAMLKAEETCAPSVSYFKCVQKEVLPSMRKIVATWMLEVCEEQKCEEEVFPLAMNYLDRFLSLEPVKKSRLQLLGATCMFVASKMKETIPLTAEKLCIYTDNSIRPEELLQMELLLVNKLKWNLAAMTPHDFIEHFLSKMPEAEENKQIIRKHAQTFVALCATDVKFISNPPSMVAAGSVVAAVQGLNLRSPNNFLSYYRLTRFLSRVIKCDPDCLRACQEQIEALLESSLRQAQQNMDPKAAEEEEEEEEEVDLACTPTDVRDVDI
Chain of CDK6/Cyclin D3 (Q00534 whole entry): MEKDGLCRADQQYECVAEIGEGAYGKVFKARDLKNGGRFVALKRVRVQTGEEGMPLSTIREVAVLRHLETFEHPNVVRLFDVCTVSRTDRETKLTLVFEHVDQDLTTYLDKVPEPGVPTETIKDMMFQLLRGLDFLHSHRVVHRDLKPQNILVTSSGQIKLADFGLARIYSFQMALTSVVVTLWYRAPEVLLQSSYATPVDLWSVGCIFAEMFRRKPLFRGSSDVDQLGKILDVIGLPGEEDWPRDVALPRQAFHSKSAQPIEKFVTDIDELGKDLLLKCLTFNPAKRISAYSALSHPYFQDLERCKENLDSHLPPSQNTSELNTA
Chain of CDK6/Cyclin D3 (P30281 whole entry partner): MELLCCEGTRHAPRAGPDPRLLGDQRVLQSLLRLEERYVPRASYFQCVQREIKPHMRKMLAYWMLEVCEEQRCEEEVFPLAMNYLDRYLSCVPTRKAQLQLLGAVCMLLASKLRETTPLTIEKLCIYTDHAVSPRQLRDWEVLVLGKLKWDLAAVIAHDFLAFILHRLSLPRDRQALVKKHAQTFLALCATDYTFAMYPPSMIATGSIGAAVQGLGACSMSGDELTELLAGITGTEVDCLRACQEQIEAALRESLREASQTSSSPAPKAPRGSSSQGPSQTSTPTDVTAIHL

IC50 [1] [nM] | IC50 [2] [nM] | Structure (SMILES)
27 | 675 | CC(C)n1c(CN[C@@H]2CCCOC2)cc(=O)c2ccc(-c3nc(N[C@@H]4CCOC[C@H]4O)ncc3F)cc21 [Example 59, 7-(5-fluoro-2-(((3S,4R)-3-hydroxytetrahydro-2H-pyran-4-yl)amino)pyrimidin-4-yl)-1-isopropyl-2-((((R)-tetrahydro-2H-pyran-3-yl)amino)methyl)quinolin-4(1H)-one]
12 | 324 | CC(C)n1c(CN2C[C@H]3C[C@@H]2CO3)cc(=O)c2ccc(-c3nc(N[C@@H]4CCOC[C@H]4O)ncc3F)cc21 [Example 33, 2-(((1R,4R)-2-oxa-5-azabicyclo[2.2.1]heptan-5-yl)methyl)-7-(5-fluoro-2-(((3S,4R)-3-hydroxytetrahydro-2H-pyran-4-yl)amino)pyrimidin-4-yl)-1-isopropylquinolin-4(1H)-one]
22 | 682 | CC(C)n1c(CN2CC[C@@H](O)C2)cc(=O)c2ccc(-c3nc(N[C@@H]4CCOC[C@H]4O)ncc3F)cc21 [Example 87, 7-(5-fluoro-2-(((3S,4R)-3-hydroxytetrahydro-2H-pyran-4-yl)amino)pyrimidin-4-yl)-2-(((R)-3-hydroxypyrrolidin-1-yl)methyl)-1-isopropylquinolin-4(1H)-one]
8.7 | 296 | CC(C)n1c(CN2[C@@H](C)COC[C@@H]2C)cc(=O)c2ccc(-c3nc(N[C@@H]4CCOC[C@H]4O)ncc3F)cc21 [Example 93, 2-(((3S,5S)-3,5-dimethylmorpholino)methyl)-7-(5-fluoro-2-(((3S,4R)-3-hydroxytetrahydro-2H-pyran-4-yl)amino)pyrimidin-4-yl)-1-isopropylquinolin-4(1H)-one]
28 | 420 | Cc1cc(=O)c2ccc(-c3nc(N[C@@H]4CCOC[C@H]4O)ncc3Cl)cc2n1C(C)C [Example 11, 7-(5-chloro-2-(((3S,4R)-3-hydroxytetrahydro-2H-pyran-4-yl)amino)pyrimidin-4-yl)-1-isopropyl-2-methylquinolin-4(1H)-one]
13 | 208 | CC(C)n1c(CNc2cccc(Cl)c2)cc(=O)c2ccc(-c3nc(N[C@@H]4CCOC[C@H]4O)ncc3F)cc21 [Example 95, 2-(((3-chlorophenyl)amino)methyl)-7-(5-fluoro-2-(((3S,4R)-3-hydroxytetrahydro-2H-pyran-4-yl)amino)pyrimidin-4-yl)-1-isopropylquinolin-4(1H)-one]
4.7 | 113 | Cc1c(CN2CCC(F)(F)CC2)n(C(C)C)c2cc(-c3nc(N[C@@H]4CCOC[C@H]4O)ncc3F)ccc2c1=O [Example 121, 2-((4,4-difluoropiperidin-1-yl)methyl)-7-(5-fluoro-2-(((3S,4R)-3-hydroxytetrahydro-2H-pyran-4-yl)amino)pyrimidin-4-yl)-1-isopropyl-3-methylquinolin-4(1H)-one]
26 | 312 | COc1ccc(NCc2cc(=O)c3ccc(-c4nc(N[C@@H]5CCOC[C@H]5O)ncc4F)cc3n2C(C)C)cc1 [Example 101, 7-(5-fluoro-2-(((3S,4R)-3-hydroxytetrahydro-2H-pyran-4-yl)amino)pyrimidin-4-yl)-1-isopropyl-2-(((4-methoxyphenyl)amino)methyl)quinolin-4(1H)-one]
93 | 539 | CC(C)n1c(C(=O)N2CCOCC2)cc(=O)c2ccc(-c3nc(N[C@@H]4CCOC[C@H]4O)ncc3Cl)cc21 [Example 13, 7-(5-chloro-2-(((3S,4R)-3-hydroxytetrahydro-2H-pyran-4-yl)amino)pyrimidin-4-yl)-1-isopropyl-2-(morpholine-4-carbonyl)quinolin-4(1H)-one]
9.1 | 273 | Cc1c(CO)n(C(C)C)c2cc(-c3nc(N[C@@H]4CCOC[C@H]4O)ncc3F)ccc2c1=O [Example 119, 7-(5-fluoro-2-(((3S,4R)-3-hydroxytetrahydro-2H-pyran-4-yl)amino)pyrimidin-4-yl)-2-(hydroxymethyl)-1-isopropyl-3-methylquinolin-4(1H)-one]
28 | 588 | CC(C)n1c(CNC2CCC2)cc(=O)c2ccc(-c3nc(N[C@@H]4CCOC[C@H]4O)ncc3F)cc21 [Example 76, 2-((cyclobutylamino)methyl)-7-(5-fluoro-2-(((3S,4R)-3-hydroxytetrahydro-2H-pyran-4-yl)amino)pyrimidin-4-yl)-1-isopropylquinolin-4(1H)-one]
29 | 1280 | CC(C)n1c(CN2CCC3(CCCO3)CC2)cc(=O)c2ccc(-c3nc(N[C@@H]4CCOC[C@H]4O)ncc3F)cc21 [Example 44, 2-((1-oxa-8-azaspiro[4.5]decan-8-yl)methyl)-7-(5-fluoro-2-(((3S,4R)-3-hydroxytetrahydro-2H-pyran-4-yl)amino)pyrimidin-4-yl)-1-isopropylquinolin-4(1H)-one]
251 | 979 | CC(=O)c1cn(C(C)C)c2cc(-c3nc(N[C@@H]4CCOC[C@H]4O)ncc3F)ccc2c1=O [Example 4, 3-acetyl-7-(5-fluoro-2-(((3S,4R)-3-hydroxytetrahydro-2H-pyran-4-yl)amino)pyrimidin-4-yl)-1-isopropylquinolin-4(1H)-one]
59 | 590 | CC(C)n1cc(C2CC2)c(=O)c2ccc(-c3nc(N[C@@H]4CCOC[C@H]4O)ncc3F)cc21 [Example 9, 3-cyclopropyl-7-(5-fluoro-2-(((3S,4R)-3-hydroxytetrahydro-2H-pyran-4-yl)amino)pyrimidin-4-yl)-1-isopropylquinolin-4(1H)-one]
7.5 | 225 | CC(C)n1c(CN2CCOCC23CC3)cc(=O)c2ccc(-c3nc(N[C@@H]4CCOC[C@H]4O)ncc3F)cc21 [Example 73, 2-((7-oxa-4-azaspiro[2.5]octan-4-yl)methyl)-7-(5-fluoro-2-(((3S,4R)-3-hydroxytetrahydro-2H-pyran-4-yl)amino)pyrimidin-4-yl)-1-isopropylquinolin-4(1H)-one]
3.8 | 407 | CC(C)n1c(CN2CCC[C@H](C#N)C2)cc(=O)c2ccc(-c3nc(N[C@@H]4CCOC[C@H]4O)ncc3F)cc21 [Example 89, (S)-1-((7-(5-fluoro-2-(((3S,4R)-3-hydroxytetrahydro-2H-pyran-4-yl)amino)pyrimidin-4-yl)-1-isopropyl-4-oxo-1,4-dihydroquinolin-2-yl)methyl)piperidine-3-carbonitrile]
162 | 1780 | COc1cn(C(C)C)c2cc(-c3nc(N[C@@H]4CCOC[C@H]4O)ncc3F)ccc2c1=O [Example 8, 7-(5-fluoro-2-(((3S,4R)-3-hydroxytetrahydro-2H-pyran-4-yl)amino)pyrimidin-4-yl)-1-isopropyl-3-methoxyquinolin-4(11H)-one]
16 | 352 | Cc1c(CN[C@H]2C[C@H](F)C2)n(C(C)C)c2cc(-c3nc(N[C@@H]4CCOC[C@H]4O)ncc3F)ccc2c1=O [Example 111, 7-(5-fluoro-2-(((3S,4R)-3-hydroxytetrahydro-2H-pyran-4-yl)amino)pyrimidin-4-yl)-2-((((1r,3R)-3-fluorocyclobutyl)amino)methyl)-1-isopropyl-3-methylquinolin-4(1H)-one]
3.4 | 78.2 | Cc1c(CN2CCOCC2)n(C(C)C)c2cc(-c3nc(N[C@@H]4CCOC[C@H]4O)ncc3F)ccc2c1=O [Example 58, 7-(5-fluoro-2-(((3S,4R)-3-hydroxytetrahydro-2H-pyran-4-yl)amino)pyrimidin-4-yl)-1-isopropyl-3-methyl-2-(morpholinomethyl)quinolin-4(1H)-one]
26 | 598 | CC(C)n1c(CNC2CC(F)(F)C2)cc(=O)c2ccc(-c3nc(N[C@@H]4CCOC[C@H]4O)ncc3F)cc21 [Example 77, 2-(((3,3-difluorocyclobutyl)amino)methyl)-7-(5-fluoro-2-(((3S,4R)-3-hydroxytetrahydro-2H-pyran-4-yl)amino)pyrimidin-4-yl)-1-isopropylquinolin-4(1H)-one]
64 | 2050 | CC(C)n1c(CN2CCC(C)(C)CC2)cc(=O)c2ccc(-c3nc(N[C@@H]4CCOC[C@H]4O)ncc3F)cc21 [Example 97, 2-((4,4-dimethylpiperidin-1-yl)methyl)-7-(5-fluoro-2-(((3S,4R)-3-hydroxytetrahydro-2H-pyran-4-yl)amino)pyrimidin-4-yl)-1-isopropylquinolin-4(1H)-one]
